Results as given in PubChem BioAssay (NCI).
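A five-concentration, 48-hour dose response in 96-well plates underlies each endpoint, interpolated linearly between surrounding concentrations. TGI: concentration producing complete growth inhibition.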

How the values were obtained:
Assay in all cases: growth of human tumour cells (NCI), 48 h
U251 CNS = tested on: U251 CNS
NCI-H460 lung = tested on: NCI-H460 lung
NCI/ADR-RES ovarian = tested on: NCI/ADR-RES ovarian
CAKI-1 renal = tested on: CAKI-1 renal
SK-MEL-28 melanoma = tested on: SK-MEL-28 melanoma
MDA-MB-231 breast = tested on: MDA-MB-231 breast
SF-295 CNS = tested on: SF-295 CNS
HL-60(TB) leukemia = tested on: HL-60(TB) leukemia
MDA-MB-435 = tested on: MDA-MB-435
MDA-N = tested on: MDA-N
OVCAR-4 ovarian = tested on: OVCAR-4 ovarian
ACHN renal = tested on: ACHN renal
UACC-62 melanoma = tested on: UACC-62 melanoma
HOP-92 NSCLC = tested on: HOP-92 NSCLC
KM12 colon = tested on: KM12 colon
NCI-H522 lung = tested on: NCI-H522 lung
M14 melanoma = tested on: M14 melanoma
OVCAR-8 ovarian = tested on: OVCAR-8 ovarian
MOLT-4 leukemia = tested on: MOLT-4 leukemia
SNB-19 CNS = tested on: SNB-19 CNS
CCRF-CEM leukemia = tested on: CCRF-CEM leukemia
MALME-3M melanoma = tested on: MALME-3M melanoma
COLO 205 colon = tested on: COLO 205 colon
SK-OV-3 ovarian = tested on: SK-OV-3 ovarian
HOP-62 NSCLC = tested on: HOP-62 NSCLC
HCC-2998 colon = tested on: HCC-2998 colon
HT29 colon = tested on: HT29 colon
K-562 leukemia = tested on: K-562 leukemia
NCI-H226 lung = tested on: NCI-H226 lung
OVCAR-5 ovarian = tested on: OVCAR-5 ovarian
SNB-75 CNS = tested on: SNB-75 CNS
SN12C renal = tested on: SN12C renal
RXF 393 renal = tested on: RXF 393 renal
BT-549 breast = tested on: BT-549 breast
SF-268 CNS = tested on: SF-268 CNS
SK-MEL-5 melanoma = tested on: SK-MEL-5 melanoma
SK-MEL-2 melanoma = tested on: SK-MEL-2 melanoma
HCT-15 colon = tested on: HCT-15 colon
PC-3 prostate = tested on: PC-3 prostate
MCF7 breast = tested on: MCF7 breast
SW-620 colon = tested on: SW-620 colon
786-0 renal = tested on: 786-0 renal
HCT-116 colon = tested on: HCT-116 colon
EKVX NSCLC = tested on: EKVX NSCLC
TK-10 renal = tested on: TK-10 renal
A498 renal = tested on: A498 renal
UACC-257 melanoma = tested on: UACC-257 melanoma
SF-539 CNS = tested on: SF-539 CNS
LOX IMVI melanoma = tested on: LOX IMVI melanoma
A549 NSCLC = tested on: A549 NSCLC
IGROV1 ovarian = tested on: IGROV1 ovarian
DU-145 prostate = tested on: DU-145 prostate
T-47D breast = tested on: T-47D breast
SR leukemia = tested on: SR leukemia
NCI-H23 lung = tested on: NCI-H23 lung
RPMI-8226 leukemia = tested on: RPMI-8226 leukemia
UO-31 renal = tested on: UO-31 renal
OVCAR-3 ovarian = tested on: OVCAR-3 ovarian
HS 578T breast = tested on: HS 578T breast

Measured: TGI

Cc1ccc(S(=O)(=O)Nn2c(O)c(C#N)c(-c3ccc([N+](=O)[O-])cc3)c(C#N)c2=O)cc1
not listed: DU-145 prostate | T-47D breast | SR leukemia | NCI-H23 lung | RPMI-8226 leukemia | UO-31 renal | OVCAR-3 ovarian | HS 578T breast
> 100 µM: all other assays above

N#Cc1nc(/C=C/c2cccnc2)oc1N
not listed: OVCAR-8 ovarian | BT-549 breast
> 100 µM: all other assays above

CC(C(N)=O)N(C)C(=O)c1cnc2ccccc2c1 (stereo not drawn)
not listed: SK-OV-3 ovarian | HOP-62 NSCLC | SF-268 CNS | EKVX NSCLC | LOX IMVI melanoma | NCI-H23 lung | HS 578T breast
> 100 µM: all other assays above

O=c1[nH]c2ccc(CC(=S)N3CCCCC3)cc2s1
not listed: U251 CNS | NCI-H460 lung | NCI/ADR-RES ovarian | HL-60(TB) leukemia | OVCAR-4 ovarian | HOP-92 NSCLC | NCI-H522 lung | CCRF-CEM leukemia | MALME-3M melanoma | HCC-2998 colon | HT29 colon | NCI-H226 lung | SNB-75 CNS | SN12C renal | RXF 393 renal | SF-268 CNS | SK-MEL-5 melanoma | EKVX NSCLC | A498 renal | SF-539 CNS | A549 NSCLC | IGROV1 ovarian | T-47D breast | RPMI-8226 leukemia | UO-31 renal | HS 578T breast
> 100 µM: all other assays above
